Test results: paper PMC4125160, “Neurotoxicity and Mode of Action of N, N-Diethyl-Meta-Toluamide (DEET)” (PLoS ONE, 2014)
Converted amounts (≈) assume the structure as drawn.

How the values were obtained:
Ae. aegypti = assay: WHO filter paper contact toxicity bioassay; format: in vivo; details: Aedes aegypti; WHO filter paper assay, 1 h exposure, mortality at 24 h; read-out: LC50 (95% CI)
[1] = tested on: sodium channels in neonatal rat cortical neurons; assay: Patch clamp of rat cortical neurons, sodium currents; format: cell-based
Protocol: (§1) Rat cortical neurons (purchased from Lonza, Walkersville, MD, USA) were placed on poly-lysine coated glass cover slips in 35 mm dishes, and cultured in primary neuron basal medium with added 2% neural grown factor and 1% glutamine (from Lonza). The medium was half changed every 3 days, and the cells were used at 6–12 days. The neurons had dendrites and axons and the diameters of the somata were about 15–20 µm. Cells were cultured on cover slips and were immersed in 35 mm Petri dishes filled with room temperature extracellular saline. Patch pipettes were pulled from borosilicate glass capillaries with filament (BF150-86-10, Sutter Instrument, Novato CA, USA) on a P-1000 Flaming/Brown micropipette puller (Sutter Instrument). Extracellular solution was the same regardless of the target ion channel and contained: 140 mM NaCl, 5 mM KCl, 2 mM MgCl2, 2 mM CaCl2, 10 mM glucose, and 10 mM HEPES (pH = 7.4). Intracellular patch solution for potassium channel recordings consisted of: 140 mM KF, 10 mM NaCl, 2 mM MgCl2, and 10 mM HEPES (pH = 7.2). Intracellular patch solution for sodium channel recordings consisted of: 140 mM CsCH3SO3 10 mM NaCl, 2 mM MgCl2, 10 mM HEPES (pH = 7.2), where CsCH3SO3 was used to eliminate potassium currents during sodium channel analysis. The patch electrodes had resistances of 5–7 MOhms.
Patch clamp recordings were performed with a 40x/0.80W water immersion objective (working distance 3.5 mm) using a forced-air-cooled Photometrics Evolve 512/CCD97 camera system. Following gigaseal formation, the membrane was ruptured through a brief, manual suction of the electrode, or by a 2 msec long zap pulse. Currents were amplified with the use of a patch-clamp amplifier (Axopatch 200B, Molecular Devices LLC, Sunnyvale, CA, USA) and processed for analysis via A/D-converter (Digidata 1440A, Molecular Devices LLC). Recordings underwent series resistance compensation, low-pass filtering at 1 kHz, and were sampled at 10 kHz or 100 kHz for potassium and sodium currents, respectively. For recording and analyzing data, pClamp 10.0 software (Molecular Devices LLC) was used.

A. gambiae (AKRON) = assay: Topical toxicity bioassay on adult females; format: in vivo, Anopheles gambiae
Protocol: (§2) Topical toxicity bioassays on adult female mosquitoes were performed based on the method of Pridgeon et al.. Briefly, insects were chilled on ice for 3 min, during which the appropriate volume (200 nL for mosquitoes, 1 µL for Musca) of chemical (dissolved in 95% ethanol) was applied onto the abdomen using a handheld Hamilton microapplicator. For each inhibitor, five doses were applied to groups of ten insects each and repeated three times. An ethanol-only treatment was included in each experiment as a negative control. Insects were transferred into a holding chamber post-treatment and supplied with free access to sugar water for the duration of the experiment. […] Three LD50 values were obtained and the mean LD50 value was calculated and used for statistical analysis.
(§3) For all toxicity assays, control mortality was corrected for using Abbots formula [19]; where corrected percent mortality = (% alive in control–% alive in treated) /% alive in control.

A. gambiae (G3) = assay: Topical toxicity bioassay on adult females; format: in vivo, Anopheles gambiae; details: topical application, ng of compound/mg of mosquito weight, 24 hr
Protocol: as §2, §3

rats = tested on: rats; design: method as in ref 24 = [24]; 24 Macko J , Weeks M ( 1980 ) Phase 6: Acute toxicity evaluation of N,N-diethyl-meta-toluamide (M-Det.) . U.S. Army Environmental Hygiene Agency Study No.71-51-0034-81.; details: oral administration to rats ref 24; cited from earlier work
mosquitoes = assay: Toxicity to mosquitoes (abstract summary); format: in vivo
Protocol: as §2

[2] = tested on: potassium channels (Kv2 delayed rectifier) in neonatal rat cortical neurons; assay: Patch clamp of rat cortical neurons, potassium currents; format: cell-based
Protocol: as §1, with “MOhms. […]” for “MOhms.”

M. domestica = assay: Topical toxicity bioassay; format: in vivo, Musca domestica
Protocol: as §2, §3

[3] = tested on: Anopheles gambiae G3 (susceptible); assay: WHO filter paper contact toxicity bioassay; format: in vivo; details: WHO filter paper assay, 1 h exposure, mortality at 24 h, read-out: LC50 (95% CI)
Protocol: (§4) Contact toxicity bioassays were performed on both strains of Anopheles gambiae, G3 (susceptible) and AKRON (pyrethroid and anticholinesterase resistance) according to WHO protocol. Adult female mosquitoes were 2–5 days of age and non-blood fed at the time of experimentation. Five concentrations of inhibitor dissolved in ethanol were prepared and treated by applying 2 mL of each concentration on a 180 cm^2 (12 cm×15 cm) paper. Papers were left to dry for 24 hours prior to use. Mosquitoes were chilled for three minutes on ice, after which 25 females were placed in the WHO kit holding chamber to recover for one hour. Mosquitoes were then moved to the treatment chamber, which contain the treated paper, and exposed for one hour. After the one-hour exposure, the mosquitoes were transferred back to the holding chamber and maintained on 10% sugar solution for 24 hrs. Each concentration was repeated in triplicate. […] Three LC50 values were obtained and the mean LC50 value was used for statistical analysis.
as §3

[4] = tested on: Anopheles gambiae AKRON (pyrethroid and anticholinesterase resistance); assay: WHO filter paper contact toxicity bioassay; format: in vivo; details: WHO filter paper assay, 1 h exposure, mortality at 24 h, read-out: LC50 (95% CI)
Protocol: as §4, §3

Drosophila melanogaster = assay: Diet (sugar-feeding) toxicity assay; format: in vivo; details: 1 mg/ml, mortality at 24 h
Protocol: Diet toxicity assays were performed on mixed sex adult Drosophila melanogaster fasted for 8 hours prior to initiating the experiment. Flies were transferred into a container stoppered with a cotton ball infused with 1 ml of a sucrose/DEET solution containing 20 insects (2–3 day old adults). The assay was run three times on three different days with matched controls. Mortality was recorded at the 24-hour time point.
as §3

## CCN(CC)C(=O)c1cccc(C)c1 [DEET, N, N-diethyl-meta-toluamide]
Ae. aegypti
  LC50: 2300 µg/mL (≈ 12 mM)
[1]; 1 mM
  block of inward sodium currents in words: completely blocked
[1]; after 1 mM block
  sodium current amplitude restored by washout: approximately 50%
[1]; read-out: IC50 against sodium channels
  IC50: ~700 µM
A. gambiae (AKRON); topical application after 4 hr pretreatment with 200 ng PBO
  LD50 (+PBO) (95% CI): 1247 (872–1526)a ng/ml
A. gambiae (AKRON); topical application, ng of compound/mg of mosquito weight, 24 hr
  LD50 (95% CI): 1472 (1136–1806)b ng/mg
A. gambiae (G3)
  LD50 (95% CI): 1175 (988–1361)a ng/mg
rats
  LD50: ca. 3000 mg/kg
mosquitoes
  LD50: ca. 1.5 µg/mg
[2]
  control current amplitude restored by washout: approximately 50%
M. domestica; topical application, 24 hr
  LD50 (95% CI): 8104 (7026–9000)c ng/mg
M. domestica; toxicologically equivalent doses
  signs of intoxication: mostly lethargic with only occasional bouts of excitation
[3]
  LC50: 1900 µg/mL (≈ 9.93 mM)
[4]
  LC50: 2700 µg/mL (≈ 14.1 mM)
Drosophila melanogaster
  toxicity in sugar-feeding assay: non-toxic
